In PMC11356900, “Synthesis, Structural Properties and Biological Activities of Novel Hydrazones of 2-, 3-, 4-Iodobenzoic Acid” (Molecules, 2024):
Converted amounts (≈) assume the structure as drawn. Where two headings read alike, the source gives them in different places.

Key:
Gram-positive bacteria = test: Broth microdilution, summary over reference Gram-positive bacteria; format: cell-based; settings: for antibacterial activity in words: reference Gram-positive bacteria / studied bacteria
Method in brief: (§1)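 Two-fold dilutions in RPMI 1640 with MOPS (fungi) or Mueller-Hinton broth (bacteria), final 1000–0.488 µg/mL, inoculum 0.5 McFarland in 0.85% NaCl. MIC read spectrophotometrically; MBC/MFC as lowest concentration with no visible growth after well contents were spotted onto agar.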

[1] = test system: Staphylococcus aureus ATCC 25923; test: Broth microdilution MIC/MBC; settings: Staphylococcus aureus, ATCC25923
Candida spp. = test: Broth microdilution, summary over reference yeasts; format: cell-based; settings: for MFC / MIC / MFC/MIC: range over the reference Candida spp. strains; for antifungal activity in words: reference yeasts from Candida spp.
Method in brief: as §1

[2] = test system: Candida krusei ATCC 14243; test: Broth microdilution MIC/MFC; format: cell-based; settings: Pichia kudriavzevii; for MFC: ATCC14243, read-out: MFC; for MIC: ATCC14243, read-out: MIC
Method in brief: as §1

[3] = test system: Candida glabrata ATCC 90030; test: Broth microdilution MIC/MFC; format: cell-based; settings: Nakaseomyces glabratus; for MFC: ATCC90030, read-out: MFC; for MIC: ATCC90030, read-out: MIC
Method in brief: as §1

[4] = test system: Candida albicans ATCC 10231; test: Broth microdilution MIC/MFC; format: cell-based; settings: for MFC: ATCC10231, read-out: MFC; for MIC: ATCC10231, read-out: MIC
Method in brief: as §1

[5] = test system: Candida albicans ATCC 2091; test: Broth microdilution MIC/MFC; format: cell-based; settings: for MFC: ATCC2091, read-out: MFC; for MIC: ATCC2091, read-out: MIC
Method in brief: as §1

[6] = test system: Candida parapsilosis ATCC 22019; test: Broth microdilution MIC/MFC; format: cell-based; settings: Lodderomyces parapsilosis; for MFC: ATCC22019, read-out: MFC; for MIC: ATCC22019, read-out: MIC
Method in brief: as §1

[7] = test system: Bacillus subtilis ATCC 6633; test: Broth microdilution MIC/MBC; settings: ATCC6633
[8] = test system: Proteus mirabilis ATCC 12453; test: Broth microdilution MIC/MBC; settings: ATCC12453
[9] = test system: Bordetella bronchiseptica ATCC 4617; test: Broth microdilution MIC/MBC; settings: ATCC4617
[10] = test system: Klebsiella pneumoniae ATCC 13883; test: Broth microdilution MIC/MBC; settings: ATCC13883
[11] = test system: Escherichia coli ATCC 25922; test: Broth microdilution MIC/MBC; settings: ATCC25922
[12] = test system: Pseudomonas aeruginosa ATCC 9027; test: Broth microdilution MIC/MBC; settings: ATCC9027
[13] = range over the reference Gram-positive bacteria
[14] = range over the reference Gram-positive bacteria, read-out: MBC
[15] = range over the reference Gram-positive bacteria, read-out: MIC

Structure (SMILES)	MBC/MIC (Gram-positive bacteria; [13])	antibacterial activity in words (Gram-positive bacteria)	MBC [1] [µg/mL]	MIC [1] [µg/mL]	MIC (Candida spp.) [µg/mL]	antifungal activity in words (Candida spp.)	melting point [°C]	MFC [2] [µg/mL]	MIC [2] [µg/mL]	MFC [3] [µg/mL]	MIC [3] [µg/mL]	MFC [4] [µg/mL]	MIC [4] [µg/mL]	MFC [5] [µg/mL]	MIC [5] [µg/mL]	MFC [6] [µg/mL]	MIC [6] [µg/mL]	MBC [7] [µg/mL]	MIC [7] [µg/mL]	MIC [8] [µg/mL]	further results
O=C(N/N=C/c1cc(I)cc(I)c1O)c1ccccc1I [Compound 14, N-[(3,5-diiodo-2-hydroxyphenyl)methylidene]-2-iodobenzohydrazide]	1–4	good or moderate	250 (≈ 405 µM)	125 (≈ 202 µM)	250 to 1000 (≈ 405 to 1620 µM)	moderate or mild	241 to 245	> 1000	500 (≈ 809 µM)	1000 (≈ 1620 µM)	250 (≈ 405 µM)	1000 (≈ 1620 µM)	500 (≈ 809 µM)	> 1000	500 (≈ 809 µM)	> 1000	1000 (≈ 1620 µM)	500 (≈ 809 µM)	500 (≈ 809 µM)		MBC (Gram-positive bacteria; [14]): 125 to 1000 µg/mL (≈ 202 to 1620 µM); MIC (Gram-positive bacteria; [15]): 62.5 to 500 µg/mL (≈ 101 to 809 µM); MFC (Candida spp.): ≥ 1000 µg/mL
O=C(N/N=C/c1cc(Cl)cc(I)c1O)c1cccc(I)c1 [Compound 20, N-[(5-chloro-2-hydroxy-3-iodophenyl)methylidene]-3-iodobenzohydrazide]	1–4	very strong (very strong bioactivity as a MIC < 10 µg/mL)	3.91 (≈ 7.43 µM)	1.95 (≈ 3.7 µM)	125 to 500 (≈ 237 to 950 µM)	good and moderate	205 to 208	> 1000	500 (≈ 950 µM)	> 1000	125 (≈ 237 µM)	> 1000	250 (≈ 475 µM)	> 1000	500 (≈ 950 µM)	> 1000	125 (≈ 237 µM)	31.2 (≈ 59.4 µM)	7.81 (≈ 14.8 µM)	500 (≈ 950 µM)	MBC (Gram-positive bacteria): 3.91 to 62.5 µg/mL (≈ 7.43 to 119 µM); MIC (Gram-positive bacteria): 1.95 to 7.81 µg/mL (≈ 3.7 to 14.8 µM); MBC [8]: 1000 µg/mL (≈ 1900 µM); MBC/MIC [8]: 2; MFC/MIC (Candida spp.): > 4; MBC [9]: > 1000 µg/mL; MBC/MIC [9]: > 2; MIC [9]: 500 µg/mL (≈ 950 µM); MBC [10]: > 1000 µg/mL; MBC/MIC [10]: > 2; MIC [10]: 500 µg/mL (≈ 950 µM); MBC [11]: > 1000 µg/mL; MBC/MIC [11]: > 1; MIC [11]: 1000 µg/mL (≈ 1900 µM); MBC [12]: > 1000 µg/mL; MBC/MIC [12]: > 2; MIC [12]: 500 µg/mL (≈ 950 µM)
O=C(N/N=C/c1cc(Br)cc(Br)c1O)c1cccc(I)c1 [Compound 21, N-[(3,5-dibromo-2-hydroxyphenyl)methylidene]-3-iodobenzohydrazide]	1–4	strong or very strong	31.2 (≈ 59.6 µM)	7.81 (≈ 14.9 µM)	125 to 500 (≈ 239 to 954 µM)	good and moderate	210 to 211	> 1000	500 (≈ 954 µM)	> 1000	125 (≈ 239 µM)	> 1000	250 (≈ 477 µM)	> 1000	500 (≈ 954 µM)	> 1000	250 (≈ 477 µM)	31.2 (≈ 59.6 µM)	7.81 (≈ 14.9 µM)	> 1000	MBC (Gram-positive bacteria): 3.91 to 62.5 µg/mL (≈ 7.46 to 119 µM); MIC (Gram-positive bacteria): 3.91 to 15.6 µg/mL (≈ 7.46 to 29.8 µM); MFC/MIC (Candida spp.): > 4; MIC [9]: > 1000 µg/mL; MIC [10]: > 1000 µg/mL; MIC [11]: > 1000 µg/mL; MIC [12]: > 1000 µg/mL
O=C(N/N=C/c1cc(Cl)cc(I)c1O)c1ccc(I)cc1 [Compound 27, N-[(5-chloro-2-hydroxy-3-iodophenyl)methylidene]-4-iodobenzohydrazide]	1–4	good (good bioactivity as a MIC in the range 26 – 125 µg/mL)	250 (≈ 475 µM)	62.5 (≈ 119 µM)	31.2 to 62.5 (≈ 59.4 to 119 µM)	good (good bioactivity as a MIC in the range 26 – 125 µg/mL)	200 to 201	62.5 (≈ 119 µM)	62.5 (≈ 119 µM)	62.5 (≈ 119 µM)	31.2 (≈ 59.4 µM)	31.2 (≈ 59.4 µM)	15.6 (≈ 29.7 µM)	62.5 (≈ 119 µM)	62.5 (≈ 119 µM)	62.5 (≈ 119 µM)	31.2 (≈ 59.4 µM)	500 (≈ 950 µM)	125 (≈ 237 µM)	500 (≈ 950 µM)	MBC (Gram-positive bacteria; [14]): 31.2 to 500 µg/mL (≈ 59.4 to 950 µM); MIC (Gram-positive bacteria; [15]): 31.2 to 125 µg/mL (≈ 59.4 to 237 µM); MBC [8]: 1000 µg/mL (≈ 1900 µM); MBC/MIC [8]: 2; MFC (Candida spp.): 62.5 µg/mL (≈ 119 µM); MFC/MIC (Candida spp.): 1–2; MBC [9]: 1000 µg/mL (≈ 1900 µM); MBC/MIC [9]: 2; MIC [9]: 500 µg/mL (≈ 950 µM); MBC [10]: > 1000 µg/mL; MBC/MIC [10]: > 2; MIC [10]: 500 µg/mL (≈ 950 µM); MBC [11]: 500 µg/mL (≈ 950 µM); MBC/MIC [11]: 1; MIC [11]: 500 µg/mL (≈ 950 µM); MBC [12]: > 1000 µg/mL; MBC/MIC [12]: > 1; MIC [12]: 1000 µg/mL (≈ 1900 µM)
